Results taken from US10597388B2, “Pyridazinone herbicides” (FMC CORPORATION, priority 2014, dated 2020).

Tests used:
Type in all cases: in vivo
rice (Oryza sativa) = test: Test B flooded paddy test; conditions: 250 g ai/ha, Flood; visual rating on scale of 0 to 100 where 0 is no effect and 100 is complete control; 13 to 15 d after treatment
Outline: (§1)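 Ratings use a 0-100 visual scale, where 100 is complete control, and compare treated plants with controls after 13 to 15 d of greenhouse growth. Compound went straight into paddy water kept 3 cm over the soil surface, applied to seedlings at the 2-leaf stage.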

[1] = test system: sedge, umbrella (small-flower umbrella sedge, Cyperus difformis); test: Test B flooded paddy test; conditions: 250 g ai/ha, Flood; visual rating on scale of 0 to 100 where 0 is no effect and 100 is complete control; 13 to 15 d after treatment
Outline: as §1

[2] = test system: ducksalad (Heteranthera limosa); test: Test B flooded paddy test; conditions: 250 g ai/ha, Flood; visual rating on scale of 0 to 100 where 0 is no effect and 100 is complete control; 13 to 15 d after treatment
Outline: as §1

[3] = test system: barnyardgrass (Echinochloa crus-galli); test: Test B flooded paddy test; conditions: 250 g ai/ha, Flood; visual rating on scale of 0 to 100 where 0 is no effect and 100 is complete control; 13 to 15 d after treatment
Outline: as §1

[4] = test system: barnyardgrass (Echinochloa crus-galli); test: Test A greenhouse herbicide test, pre- and postemergence
Outline: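 Visual injury ratings, 0 (no effect) to 100 (complete control), versus untreated plants after roughly 10 d in a greenhouse. Compounds, formulated in a surfactant-containing non-phytotoxic solvent, were sprayed on loam–sand soil after sowing (pre) or on one- to two-leaf plants 2–10 cm tall (post).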

[5] = test system: galium (catchweed bedstraw, Galium aparine); test: Test A greenhouse herbicide test, postemergence; conditions: for Galium plant response rating: 0 to 100 scale, 0 is no effect, 100 is complete control
Outline: (§2)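 Seedlings in a loam soil and sand mix received formulated compound postemergence at the one- to two-leaf stage. Greenhouse holding lasts approximately 10 d, then injury is scored visually relative to untreated plants, 0 meaning no effect and 100 complete control.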

[6] = test system: blackgrass (Alopecurus myosuroides); test: Test A greenhouse herbicide test, postemergence; conditions: for Blackgrass plant response rating: 0 to 100 scale, 0 is no effect, 100 is complete control
Outline: as §2

[7] = test system: chickweed (common chickweed, Stellaria media); test: Test C greenhouse herbicide test, postemergence
Outline: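 Greenhouse postemergence spray on plants 2–18 cm tall; response judged visually after 13–15 d relative to untreated controls using a 0 (none) to 100 (full control) scale.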

[8] = Postemergence, 125 g ai/ha, 0 to 100 scale where 0 is no effect and 100 is complete control
[9] = Postemergence, 500 g ai/ha, 0 to 100 scale, 0 is no effect, 100 is complete control
[10] = Preemergence, 125 g ai/ha, 0 to 100 scale where 0 is no effect and 100 is complete control
[11] = Preemergence, 500 g ai/ha, 0 to 100 scale where 0 is no effect and 100 is complete control
[12] = 125 g ai/ha, 0 to 100 scale where 0 is no effect and 100 is complete control
[13] = Postemergence, 31 g ai/ha, 0 to 100 scale (0 no effect, 100 complete control)
[14] = Postemergence, 125 g ai/ha, scale 0 to 100, 0 is no effect, 100 is complete control
[15] = Postemergence, 250 g ai/ha, scale 0 to 100, 0 no effect, 100 complete control, 13 to 15 d
[16] = postemergence, 62 g ai/ha, scale 0 to 100, 0 no effect, 100 complete control
[17] = 500 g ai/ha, visual rating after approx. 10 d, 0 to 100 scale (0 no effect, 100 complete control)
[18] = Postemergence, 500 g ai/ha, visual rating after approx. 10 d, 0 to 100 scale (0 no effect, 100 complete control)
[19] = Postemergence, 31 g ai/ha, scale 0 to 100 (0 no effect, 100 complete control)

| Compound | Plant response rating, Rice (rice (Oryza sativa)) | Plant response rating, Sedge, Umbrella [1] | Plant response rating, Ducksalad [2] | Plant response rating, Barnyardgrass [3] | Plant response rating, Barnyardgrass [4, 8] | Barnyardgrass plant response rating [4, 9] | Barnyardgrass plant response rating [4, 10] | Plant response rating, Barnyardgrass [4, 11] | Plant response rating, Galium [5, 12] | Galium plant response rating ([5]; 500 g ai/ha) | Plant response rating, Blackgrass [6, 12] | Blackgrass plant response rating ([6]; 500 g ai/ha) | Chickweed plant response rating [7, 13] | Plant response rating, Chickweed [7, 14] | Plant response rating, Chickweed [7, 15] | Chickweed plant response rating [7, 16] | Plant response rating, Galium [5, 17] | Plant response rating, Barnyardgrass [4, 18] | Plant response rating, Blackgrass [6, 17] | Plant response rating, Chickweed [7, 19] |
| --- | --- | --- | --- | --- | --- | --- | --- | --- | --- | --- | --- | --- | --- | --- | --- | --- | --- | --- | --- | --- |
| CCOC(=O)Oc1c(C)nn(C)c(=O)c1-c1c(C)sc2c(C)cc(C)cc12 [Compound 83] | 30 | 90 | 70 | 60 | 40 | 90 | 70 | 100 | 100 | 100 | 90 | 100 | 90 | 95 | 100 | 95 |  |  |  |  |
| Cc1cc(C)c2sc(C)c(-c3c(OC(=O)OCCCl)c(C)nn(C)c3=O)c2c1 [Compound 85] | 50 | 80 | 50 | 50 | 30 | 80 | 70 | 100 | 90 | 100 | 90 | 90 | 90 | 95 | 100 | 95 |  |  |  |  |
| C#CCOC(=O)Oc1c(C)nn(C)c(=O)c1-c1c(C)sc2ccc(C)cc12 [Compound 87] | 0 | 0 | 0 | 0 | 40 | 80 | 50 | 80 | 90 | 90 | 80 | 80 | 90 | 95 | 98 | 90 |  |  |  |  |
| CC(=O)Oc1c(C#N)nn(C)c(=O)c1-c1c(C)ccc2ccccc12 [Compound 98] | 30 | 60 | 75 | 45 | 90 | 90 | 40 | 100 | 100 |  | 30 | 30 | 95 | 100 | 100 | 100 | 100 |  |  |  |
| COc1nn(C)c(=O)c(-c2c(C)sc3ccc(Cl)cc23)c1O [Compound 100] | 0 | 0 | 0 | 0 | 30 | 30 | 20 | 20 | 90 |  | 40 | 70 | 90 | 95 | 95 | 90 | 100 |  |  |  |
| CCC(=O)Oc1c(Cl)nn(C)c(=O)c1-c1c(C)sc2ccc(Cl)cc12 [Compound 111] | 0 | 75 | 75 | 0 | 40 |  | 70 | 100 | 90 |  | 30 |  |  | 100 | 98 | 98 | 100 | 90 | 70 | 95 |
| Cc1sc2ccc(Cl)cc2c1-c1c(OS(C)(=O)=O)c(Cl)nn(C)c1=O [Compound 114] | 0 | 70 | 50 | 0 | 20 |  | 30 | 80 | 90 |  | 20 |  |  | 98 | 98 | 95 | 100 | 90 | 60 | 90 |
| Cc1nn(C)c(=O)c(-c2cc(F)cc3ccccc23)c1OS(C)(=O)=O [Compound 115] | 0 | 0 | 0 | 0 | 20 |  | 10 | 50 | 80 |  | 20 |  |  | 90 | 90 | 75 | 100 | 90 | 70 | 80 |
